US6500853B1, “Inhibitors of phospholipase enzymes” (Genetics Institute, LLC, priority 1998, dated 2002)

Tests used:
[1] = test system: Rat Carrageenan-Induced Footpad Edema; test: Rat Carrageenan-Induced Footpad Edema Test; type: in vivo, male Sprague Dawley rats; details: footpad volume 3 hours after carrageenan; for inhibition in vivo at 2 mg/kg / inhibition in vivo at 10 mg/kg: po; for inhibition in vivo at 2 mg/kg / inhibition in vivo at 10 mg/kg / PERCENT INHIBITION: PO
[2] = biological target: T1, cPLA2 (Homo sapiens, UniProt P47712); test: Coumarin Assay (cPLA2 inhibition); type: biochemical; details: for inhibition at 24 µM: CONCENTRATION 24 micromolar
T1 sequence (P47712 1-749): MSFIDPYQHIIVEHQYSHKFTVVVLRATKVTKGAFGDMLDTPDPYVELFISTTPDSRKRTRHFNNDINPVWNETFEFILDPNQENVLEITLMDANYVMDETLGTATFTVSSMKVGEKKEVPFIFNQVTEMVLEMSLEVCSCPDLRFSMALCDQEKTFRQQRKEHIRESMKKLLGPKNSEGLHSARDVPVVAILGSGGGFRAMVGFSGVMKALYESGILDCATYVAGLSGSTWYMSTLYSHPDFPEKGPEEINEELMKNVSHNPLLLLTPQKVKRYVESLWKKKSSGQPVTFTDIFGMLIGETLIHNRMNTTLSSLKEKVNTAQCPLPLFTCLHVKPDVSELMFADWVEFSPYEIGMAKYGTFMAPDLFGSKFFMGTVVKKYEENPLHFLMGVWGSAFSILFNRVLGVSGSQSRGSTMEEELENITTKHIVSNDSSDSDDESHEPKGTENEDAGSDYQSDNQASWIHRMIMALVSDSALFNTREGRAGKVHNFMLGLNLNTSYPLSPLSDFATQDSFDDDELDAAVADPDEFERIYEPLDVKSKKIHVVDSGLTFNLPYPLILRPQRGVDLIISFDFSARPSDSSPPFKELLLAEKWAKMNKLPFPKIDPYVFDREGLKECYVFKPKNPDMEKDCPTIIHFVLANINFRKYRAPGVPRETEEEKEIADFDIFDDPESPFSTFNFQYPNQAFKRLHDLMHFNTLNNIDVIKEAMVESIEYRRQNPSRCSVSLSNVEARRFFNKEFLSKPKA
Outline: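 Percent inhibition at the stated concentration, from the rate of 460 nm emission rise (360 nm excitation) per minute. Reaction started by adding 4 μg enzyme to compound and 60 μM 7-hydroxycoumarinyl 6-heptenoate in Hepes buffer pH 7.5 with 1 mM EDTA.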

[3] = Rattus norvegicus, 3 h, 2 mg/Kg, read-out: PERCENT INHIBITION
[4] = Rattus norvegicus, 3 h, 10 mg/Kg, read-out: PERCENT INHIBITION
[5] = CONCENTRATION 100 micromolar, read-out: PERCENT INHIBITION @

Molecule `O=C(O)c1cccc(NC(=O)c2cn(C(c3ccccc3)c3ccccc3)c3ccc(NC(=O)C4CCCC4)cc23)c1` [Example 100, 3-[({1-benzhydryl-5-[(cyclopentylcarbonyl)amino]-1H-indol-3-yl}carbonyl)amino]benzoic acid] has an inhibition in vivo at 2 mg/kg [1, 3] of 6.14%, an inhibition in vivo at 10 mg/kg [1, 4] of 20.7% and an inhibition at 24 µM ([2]; read-out: PERCENT INHIBITION @) of 50%. For the same molecule, the inhibition at 30 µM ([2]; CONCENTRATION 30 micromolar, read-out: PERCENT INHIBITION @) was 50% and the inhibition at 80 µM ([2]; CONCENTRATION 80 micromolar, read-out: PERCENT INHIBITION @) was 50%.
In the case of `O=C(O)CCNC(=O)c1cn(C(c2ccccc2)c2ccccc2)c2ccc(NC(=O)C3CCCC3)cc12` [Example 101, 3-[({1-benzhydryl-5-[(cyclopentylcarbonyl)amino]-1H-indol-3-yl}carbonyl)amino]propanoic acid], the inhibition in vivo at 2 mg/kg [1, 3] is reported as 11.2%, the inhibition in vivo at 10 mg/kg [1, 4] is reported as 12.4% and the inhibition at 100 µM [2, 5] is reported as 6%. It also gave an inhibition at 400 µM ([2]; CONCENTRATION 400 micromolar, read-out: PERCENT INHIBITION @) of 49%.
For `Cc1ccccc1S(=O)(=O)NC(=O)c1cn(C(c2ccccc2)c2ccccc2)c2ccc(NC(=O)C3CCCC3)cc12` [Example 102, N-[1-benzhydryl-3-({[(2-methylphenyl)sulfonyl]amino}carbonyl)-1H-indol-5-yl]cyclopentanecarboxamide], the inhibition in vivo at 2 mg/kg [1, 3] was 2.56%, the inhibition in vivo at 10 mg/kg [1, 4] was 8.48% and the inhibition at 20 µM ([2]; CONCENTRATION 20 micromolar, read-out: PERCENT INHIBITION @) was 31%. For the same molecule, the inhibition at 48 µM ([2]; CONCENTRATION 48 micromolar, read-out: PERCENT INHIBITION @) was 50%.
With `O=C(O)CCNC(=O)C(=O)c1cn(C(c2ccccc2)c2ccccc2)c2ccc(NC(=O)C3CCCC3)cc12` [Example 103, 3-[(2-{1-benzhydryl-5-[(cyclopentylcarbonyl)amino]-1H-indol-3-yl}-2-oxoacetyl)amino]propanoic acid] the inhibition in vivo at 2 mg/kg [1, 3] was 16.5%, the inhibition in vivo at 10 mg/kg [1, 4] was 17.3% and the inhibition at 100 µM [2, 5] was 50%. For the same molecule, the inhibition at 104 µM ([2]; CONCENTRATION 104 micromolar, read-out: PERCENT INHIBITION @) was 50%.
In the case of `O=C(Nc1cccc(C(=O)O)c1)C(=O)c1cn(C(c2ccccc2)c2ccccc2)c2ccc(NC(=O)C3CCCC3)cc12` [Example 104, 3-[(2-{1-benzhydryl-5-[(cyclopentylcarbonyl)amino]-1H-indol-3-yl}-2-oxoacetyl)amino]benzoic acid], the inhibition in vivo at 2 mg/kg [1, 3] is reported as 14.5%, the inhibition in vivo at 10 mg/kg [1, 4] is reported as 6.01% and the inhibition at 22 µM ([2]; CONCENTRATION 22 micromolar, read-out: PERCENT INHIBITION @) is reported as 50%. The inhibition at 24 µM ([2]; read-out: PERCENT INHIBITION @) was 50%.
`O=C(Cc1cn(Cc2ccc(Cc3ccccc3)cc2)c2ccc(OCc3ccccc3)cc12)Nc1cccc(C(=O)O)c1` [Example 105, 3-({2-[1-(4-benzylbenzyl)-5-(benzyloxy)-1H-indol-3-yl]acetyl}amino)benzoic acid] showed an inhibition in vivo at 5 mg/kg ([1]; Rattus norvegicus, iv, 3 h, IV, 5 mg/Kg, read-out: PERCENT INHIBITION) of 1.51%, an inhibition at 2.4 µM ([2]; CONCENTRATION 2.4 micromolar, read-out: PERCENT INHIBITION @) of 50% and an inhibition at 7 µM ([2]; CONCENTRATION 7 micromolar, read-out: PERCENT INHIBITION @) of 50%. The inhibition at 10 µM ([2]; CONCENTRATION 10 micromolar, read-out: PERCENT INHIBITION @) was 74%.
`O=C(O)c1cn(C(c2ccccc2)c2ccccc2)c2ccc(NC(=O)C3CCCC3)cc12` [Example 114, 1-benzhydryl-5-[(cyclopentylcarbonyl)amino]-1H-indole-3-carboxylic acid] was tested, and the inhibition in vivo at 2 mg/kg [1, 3] was 12.2%, the inhibition in vivo at 10 mg/kg [1, 4] was 22.2% and the inhibition at 100 µM [2, 5] was 45%. For the same molecule, the inhibition at 152 µM ([2]; CONCENTRATION 152 micromolar, read-out: PERCENT INHIBITION @) was 50% and the inhibition at 170 µM ([2]; CONCENTRATION 170 micromolar, read-out: PERCENT INHIBITION @) was 50%.
In the case of `O=C(O)C(=O)c1cn(C(c2ccccc2)c2ccccc2)c2ccc(NC(=O)C3CCCC3)cc12` [Example 115], the “PERCENT INHIBITION” value ([1]; 2 mg/Kg) is reported as 1.24%, the “PERCENT INHIBITION” value ([1]; 10 mg/Kg) is reported as 18.46% and the “PERCENT INHIBITION @” value ([2]; CONCENTRATION 50 micromolar) is reported as 89%. For the same molecule, the “PERCENT INHIBITION @” value ([2]; CONCENTRATION 100 micromolar) was 20% and the “PERCENT INHIBITION @” value ([2]; CONCENTRATION 250 micromolar) was 50%.
